Results from US9255268B2, “Methods for diagnosing and treating learning or mental disorders” (St. Jude Children's Research Hospital, priority 2012, dated 2016).

What was measured:
[1] = test system: LTP at CA3-CA1 synapses in hippocampal slices; assay: LTP of fEPSPs in acute hippocampal slices in the presence of the SERCA inhibitor thapsigargin; type: cell-based, mouse
Procedure: Acute transverse hippocampal slices (400 μm) were prepared according to known methods (Earls, et al. (2010) J. Neurosci. 30:15843-15855). Briefly, mouse brains were quickly removed and placed in cold (4° C.) dissecting artificial CSF (ACSF) containing 125 mM choline-Cl, 2.5 mM KCl, 0.4 mM CaCl2, 6 mM MgCl2, 1.25 mM NaH2PO4, 26 mM NaHCO3, and 20 mM glucose (285-295 mOsm), under 95% O2/5% CO2. After dissection, slices were incubated for 1 hour in ACSF containing 125 mM NaCl, 2.5 mM KCl, 2 mM CaCl2, 2 mM MgCl2, 1.25 mM NaH2PO4, 26 mM NaHCO3, and 10 mM glucose (285-295 mOsm), under 95% O2/5% CO2 at room temperature, and then transferred into submerged recording chambers and superfused (2-3 ml/min) with warm (30-32° C.) ACSF. Field recordings were performed using a setup with eight submerged recording chambers (Campden Instruments). Recordings in each chamber were performed independently. Field EPSPs (fEPSPs) from the CA1 stratum radiatum were recorded by using an extracellular glass pipette (3-5 MΩ) filled with ACSF. Schaffer collateral fibers in the stratum radiatum were stimulated with a bipolar tungsten electrode placed 200-300 μm away from the recording pipette. Stimulation intensities were chosen to produce an fEPSP with a 0.5 V/s slope. LTP was induced by three periods of 200 Hz tetanization delivered every 5 minutes. Each period of tetanization included 10 trains of 200 Hz stimulation delivered at the same intensity for 200 ms (40 stimulations) every 5 seconds. To test whether this increase in SERCA2 was necessary for enhanced LTP in Dgcr8^+/− mice, LTP was measured in the presence of the SERCA inhibitor thapsigargin (4 μM). […] In the absence of thapsigargin, the fEPSP slope increased measured six hours after induction was approximately 120% stronger than in the presence of thapsigargin in slices from Dgcr8^+/− mice (8 mice: 21 slices vehicle, 21 slices thapsigargin; p=0.014).

[2] = test system: SERCA2; assay: Quantitative western blot of SERCA2 in hippocampus after AAV-miRNA injection into CA3; type: in vivo, mouse; details: wild-type mice; injection into CA3 at 10 weeks, hippocampi harvested at 16 weeks; versus GFP-only vector
Procedure: Western blots were performed according to known methods (Earls, et al. (2010) supra). For human brain tissue, dissected samples arrived from brain banks frozen on dry ice. Mouse tissue was dissected at 4° C. and prepared either as whole-tissue lysates or as crude P2 synaptosomal fractions. Synaptosomes were prepared using established methods (Gray & Whittaker (1962) J. Anat. 96:79-88). In brief, tissue was homogenized in 10 mM HEPES (pH 7.4)/0.32 M sucrose using a motorized glass-TEFLON homogenizer. To separate the P2 synaptosomal fraction, the homogenate was spun for 5 minutes at 800×g; the supernatant from three successive spins was then centrifuged for 20 minutes at 12,000×g. Tissue or synaptosomal pellets were lysed by freezing and thawing, subsequent syringe passage in ice-cold radioimmunoprecipitation assay buffer (50 mM Tris-HCl (pH 7.4), 1% NP-40, 0.25% sodium deoxycholate, 150 mM NaCl, 1 mM EDTA, and protease inhibitor cocktail tablets (Roche), and finally brief sonication. Concentrations of protein lysates were determined by the BCA assay (Thermo Scientific). A 25 μg sample of each protein extract was electrophoresed on a 10% SDS-PAGE gel, and protein was transferred onto polyvinylidene difluoride membranes (Invitrogen). The primary antibodies used were goat anti-SERCA2 (1:250, sc-8095; Santa Cruz Biotechnology) and mouse anti-β-actin (1:10000, A5316; Sigma-Aldrich). […]

[3] = test system: LTP in Dgcr8+/− hippocampus; assay: Rescue of LTP increase in Dgcr8+/− mice by presynaptic restoration of miRNA (AAV into CA3); type: in vivo, mouse; details: presynaptic (CA3) AAV expression; injected at 10 weeks, LTP measured at 16 weeks
Procedure: Acute transverse hippocampal slices (400 μm) were prepared according to known methods (Earls, et al. (2010) J. Neurosci. 30:15843-15855). Briefly, mouse brains were quickly removed and placed in cold (4° C.) dissecting artificial CSF (ACSF) containing 125 mM choline-Cl, 2.5 mM KCl, 0.4 mM CaCl2, 6 mM MgCl2, 1.25 mM NaH2PO4, 26 mM NaHCO3, and 20 mM glucose (285-295 mOsm), under 95% O2/5% CO2. After dissection, slices were incubated for 1 hour in ACSF containing 125 mM NaCl, 2.5 mM KCl, 2 mM CaCl2, 2 mM MgCl2, 1.25 mM NaH2PO4, 26 mM NaHCO3, and 10 mM glucose (285-295 mOsm), under 95% O2/5% CO2 at room temperature, and then transferred into submerged recording chambers and superfused (2-3 ml/min) with warm (30-32° C.) ACSF. Field recordings were performed using a setup with eight submerged recording chambers (Campden Instruments). Recordings in each chamber were performed independently. Field EPSPs (fEPSPs) from the CA1 stratum radiatum were recorded by using an extracellular glass pipette (3-5 MΩ) filled with ACSF. Schaffer collateral fibers in the stratum radiatum were stimulated with a bipolar tungsten electrode placed 200-300 μm away from the recording pipette. Stimulation intensities were chosen to produce an fEPSP with a 0.5 V/s slope. LTP was induced by three periods of 200 Hz tetanization delivered every 5 minutes. Each period of tetanization included 10 trains of 200 Hz stimulation delivered at the same intensity for 200 ms (40 stimulations) every 5 seconds.
In Vivo Viral Injections. Adeno-associated viruses (AAVs) were prepared by cloning chimeric hairpins of them iRNAs of interest with hsa-miR-30a into the pAAV-6P-SEWB vector (Christensen, et al. (2010) Front. Neural Circuits 3:16). […]

Compound | fEPSP slope increase in the absence versus the presence of thapsigargin ([1]; six hours after induction, 4 μM, slices from Dgcr8+/− mice, p=0.014) | LTP increase in Dgcr8+/− slices ([1]; thapsigargin 4 μM, slices from mature Dgcr8+/− mice) | LTP in slices from wild-type littermates ([1]; thapsigargin 4 μM, wild-type slices, p=0.974) | SERCA2 levels (quantitative western blot) [2] | rescue of increased LTP in Dgcr8+/− hippocampus [3]
C/C=C(/C)C(=O)O[C@H]1C(C)=C2[C@H]([C@@H]1OC(=O)CCCCCCC)[C@@](C)(OC(C)=O)C[C@H](OC(=O)CCC)[C@@]1(O)[C@H]2OC(=O)[C@@]1(C)O [thapsigargin] | approximately 120% | rescued the LTP increase | did not affect LTP |  | 
miR-25: microRNA; human mature sequence CAUUGCACUUGUCUCGGUCUGA (SEQ ID NO:2) (CAUUGCACUUGUCUCGGUCUGA; expressed or natural sequence; listed as Homo sapiens) |  |  |  | decreased | sufficient to rescue the increased LTP
miR-98: microRNA; human mature sequence UGAGGUAGUAAGUUGUAUUGUU (SEQ ID NO:4) (UGAGGUAGUAAGUUGUAUUGUU; expressed or natural sequence; listed as Homo sapiens) |  |  |  |  | sufficient to rescue aberrant LTP
miR-185: microRNA; human mature sequence UGGAGAGAAAGGCAGUUCCUGA (SEQ ID NO:6) (UGGAGAGAAAGGCAGUUCCUGA; expressed or natural sequence; listed as Homo sapiens) |  |  |  | decreased | sufficient to rescue the increased LTP
